Columns and labels:
[1] = Fluorescence emission spectra of probes in glycerol and methanol (viscosity response); type: physicochemical; conditions: maximum excitation wavelength of each probe; for Fluorescence ratio in glycerol methanol: 1×10^−5 M; for Emission wavelength: medium not given
Source text: Respectively dissolve Probe 1-32 and Reference Probes BG-CCVJ and BG-Gly-CCVJ in dimethyl sulfoxide so as to prepare a mother liquid with a concentration of 1×10^−2M; add the mother liquid to glycerol and methanol respectively and mix them well to prepare a solution with a concentration of 1×10^−5 M. Based on different probes, the fluorescence emission spectrum of each probe are detected under the same conditions with maximum excitation wavelength of each probe.
The probes are sensitive to the change of viscosity and have viscosity response.

[2] = Fluorescence of free probe before reaction with the protein tag; type: physicochemical
Protocol: (§1) Mix the probe with corresponding protein tag to obtain the mixed sample, wherein the final concentration of probe in the mixed sample is 5 μM, and the final concentration of protein tags is 10 μM; hatch the mixed sample at 37° C. for 1 h, and detect its fluorescence intensity change by using the fluorescence spectrophotometer.
(§2) According to the free probe quantum yield shown in Table 1, the fluorescence of the probes of and reference probes are extremely low before the reaction with the protein tag, and is close to the background fluorescence level of PBS buffer solution. […] However, according to the quantum yield of the binding protein tag, the fluorescence signal enhancement can be detected in the corresponding excitation emission channel after the probe reacts with the protein tag with hundreds to one thousand fold fluorescence activation times and very high brightness; the reference probes also can activate fluorescence, but the fluorescence quantum yield and brightness after activation are quite low.

CLIP protein tag = experiment: Fluorescence activation after mixing probe with corresponding protein tag (CLIP); type: biochemical; conditions: probe 5 μM, protein tag 10 μM, 37° C., 1 h
Protocol: as §1, §2

Hela cells [3] = experiment: Two-colour orthogonal labeling of CLIP-histone and mito-SNAP in the same Hela cell; type: cell-based; conditions: Probe 16 and Probe 9, 0.2 μM, 2 h, without washing
Protocol: Plant Hela cells (5000 cells/well) in a glass bottom plate of 96-well for 14 h; transfect pcdna3.1-CLIP-histone (CLIP protein labeled chromosome localization plasmid) and pcdna3.1-mito-SNAP (SNAP protein labeled […] localization plasmid) by using Lipo2000 kit (0.1 μg/well). After 24 h of transfection, remove the original culture medium, and wash the culture medium twice with phenol free red DMEM culture medium, and hatch the cells respectively with phenol free red medium containing Probe 16 and Probe 9 (0.2 μM) for 2 h, and detect the effect of cell labeling by using Leica TCS-8 confocal microscopy imaging.

SNAP protein tag [4] = experiment: Labeling of SNAP protein tag expressed in the liver of living mice; type: in vivo; conditions: 0.4 μM in 200 μL PBS intravenously, 6 h
Protocol: Firstly, introduce the plasmid pcdna3.1-SNAP (sample group) with SNAP protein expressing and the contrastive plasmid pcdna3.1-CAT (contrastive group) without SNAP protein expressing into mice. In this method, the plasmid is dissolved in a large volume of solution and rapidly injected into mice intravenously. The plasmid is absorbed by mouse liver, and then express the target protein. After 24 h of plasmid injection, inject the Probe 16 (0.4 μM) dissolved in 200 μL of PBS into mice intravenously to label SNAP protein tag. After 6 h, dissect the mice, and detect liver fluorescence differences by using Kodak multispectral vivo imaging system.

SNAP protein tag [5] = experiment: Fluorescence activation after mixing probe with corresponding protein tag (SNAP); type: biochemical; conditions: probe 5 μM, protein tag 10 μM, 37° C., 1 h
Protocol: as §1, §2

Hela cells [6] = experiment: Labeling of protein tags located in different organelles of Hela cells without washing; type: cell-based; conditions: probe 0.2 μM, 2 h
Protocol: Plant Hela cells (5000 cells/well) in a glass bottom plate of 96-well for 14 h, and then use Lipo2000 kit to transfect protein tags to locate plasmids in different organelles. After 24 h of transfection, remove the original culture medium, wash the culture medium twice with phenol free red DMEM culture medium, and hatch the cells with phenol free red medium containing probe (0.2 μM) for 2 h, and detect the effect of cell labeling by using Leica TCS-8 confocal microscopy imaging.

Hela cells [7] = experiment: Labeling of Hela cells expressing protein tags versus Hela-WT cells, confocal microscopy; type: cell-based; conditions: probe 5 μM, 37° C., 2 h
Protocol: Take Hela cells as an example to detect the labeling effect of the compounds in mammalian cells. Hela cells and Hela-WT cells (Hela primitive cells without expressing protein tags), which can express protein tags stably, are planted in a glass bottom 96-well plate of 14 mm for 10 h. Add Probe 16, Probe 17 and Probe 18 into a culture medium respectively and dilute them to 5 μM. Hatch the cells in a carbon dioxide incubator at 37° C. for 2 h. Detect the fluorescence changes of labeled cells by using Leica TPS-8 confocal microscopy.

SNAP-IAA17-H2B = experiment: Probe fluorescence during IAA-induced protein degradation (AID system) in Hela cells; type: cell-based; conditions: probe 1 μM; 140 min after IAA added
Protocol: In order to verify that the fluorescence activation of the probe is related to the existence of protein, SNAP protein of mammalian cells is taken as an example, and AID degradation system is an example of detecting the fluorescence changes of probes combined with SNAP after protein degradation in Hela cells. Firstly, plant Hela cells (20000/cm^2) in a glass bottom cell culture medium of 20 mm for 14 h, and then transect the plasmids pcdna3.1-TIR1 and pcdna3.1-SNAP-IAA17-H2B by means of Lipofectmain2000 transfection reagent (Invertogen Co.). After the cells are transfected for 24 h, replace the cells labeled by the original cell culture medium with phenol red DMEM culture medium containing Probe 16 (1 μM), and hatch the cee sample in a carbon dioxide incubator at 37° C. for 1 h. After labeling, detect the fluorescence signal of the labeled cells by using Leica SP8 laser confocal microscopy imaging, and add indoleacetic acid (IAA) to induce the protein degradation of SNAP-IAA17-H2B, and detect the changes of cell fluorescence during protein degradation.

Structure (SMILES) | Fluorescence ratio in glycerol methanol [1] | Emission wavelength [1] | Quantum yield of free probe [2] | Quantum yield of binding protein tags (CLIP protein tag) | Fluorescence activation multiple (CLIP protein tag) | Display of mitochondria and chromosomes in the same cell (Hela cells [3]) | Liver fluorescence intensity of pcdna3.1-SNAP mice relative to the contrastive group (SNAP protein tag [4]) | Liver fluorescence of mice injected with contrastive plasmid pcdna3.1-CAT (SNAP protein tag [4]) | Fluorescence activation multiple (SNAP protein tag [5]) | Quantum yield of binding protein tags (SNAP protein tag [5]) | Display of subcellular organelle structures (Hela cells [6]) | Fluorescence signal in Hela-WT cells (without protein tags) (Hela cells [7]) | Increase of fluorescence signal in cells expressing protein tags (Hela cells [7]) | Fluorescence signal of SNAP-IAA17-H2B protein after IAA addition (SNAP-IAA17-H2B)
CN(CCOC(=O)NCc1ccc(COc2nccc(N)n2)cc1)c1ccc(-c2ccc(/C=C(\C#N)C(=O)OC(C)(C)C)o2)o1 [Probe 15] | 301 | 651 nm | 0.0012 | 0.35 | 265 | – | – | – | – | – | – | – | – | –
CN(CCOC(=O)NCc1ccc(COc2nc(N)nc3[nH]cnc23)cc1)c1ccc2c(c1)C(C)(C)c1cc(/C=C(\C#N)C(=O)OC(C)(C)C)sc1-2 [Probe 16] | 1421 | 645 nm | <0.001 | – | – | clearly and simultaneously display the structure of mitochondria and chromosomes without washing | more than 20 fold | very low | 842 | 0.71 | can clearly display a variety of subcellular organelle structures without washing | no corresponding fluorescence signal is detected | ~700 times | almost negligible
CN(CCOC(=O)NCc1ccc(COc2nc(N)nc3[nH]cnc23)cc1)c1ccc2c(c1)C(C)(C)c1cc(/C=C(\C#N)c3nc4ccccc4s3)sc1-2 [Probe 18] | 1123 | 675 nm | <0.001 | – | – | – | – | – | 890 | 0.48 | can clearly display a variety of subcellular organelle structures without washing | no corresponding fluorescence signal is detected | ~700 times | –
CN(CCOC(=O)NCc1ccc(COc2nccc(N)n2)cc1)c1ccc2c(c1)C(C)(C)c1cc(/C=C(\C#N)c3nc4ccccc4o3)sc1-2 [Probe 25] | 782 | 670 nm | <0.001 | 0.41 | 421 | – | – | – | – | – | – | – | – | –
CN(CCOC(=O)NCc1ccc(COc2nccc(N)n2)cc1)c1ccc2c(c1)C(C)(C)c1cc(/C=C(\C#N)c3nc4ccccc4s3)sc1-2 [Probe 26] | 522 | 675 nm | <0.001 | 0.46 | 478 | – | – | – | – | – | – | – | – | –

Second part, led by results:

Fluorescence ratio in glycerol methanol [1] | Emission wavelength [1] | Quantum yield of free probe [2] | Quantum yield of binding protein tags (CLIP protein tag) | Structure (SMILES) | Fluorescence activation multiple (CLIP protein tag) | Display of mitochondria and chromosomes in the same cell (Hela cells [3]) | Liver fluorescence intensity of pcdna3.1-SNAP mice relative to the contrastive group (SNAP protein tag [4]) | Liver fluorescence of mice injected with contrastive plasmid pcdna3.1-CAT (SNAP protein tag [4]) | Fluorescence activation multiple (SNAP protein tag [5]) | Quantum yield of binding protein tags (SNAP protein tag [5]) | Display of subcellular organelle structures (Hela cells [6]) | Fluorescence signal in Hela-WT cells (without protein tags) (Hela cells [7]) | Increase of fluorescence signal in cells expressing protein tags (Hela cells [7]) | Fluorescence signal of SNAP-IAA17-H2B protein after IAA addition (SNAP-IAA17-H2B)
1125 | 645 nm | <0.001 | 0.55 | CN(CCOC(=O)NCc1ccc(COc2nccc(N)n2)cc1)c1ccc2c(c1)C(C)(C)c1cc(/C=C(\C#N)C(=O)OC(C)(C)C)sc1-2 [Probe 24] | 535 | – | – | – | – | – | – | – | – | –
1024 | 652 nm | <0.001 | 0.57 | CN(CCOC(=O)NCc1ccc(COc2nccc(N)n2)cc1)c1ccc2c(c1)C(C)(C)c1cc(/C=C(\C#N)C(=O)OC(C)(C)C)oc1-2 [Probe 29] | 933 | – | – | – | – | – | – | – | – | –
